Assay results: patent US10273248B2, “Glucose uptake inhibitors” (Kadmon Corporation LLC, priority 2015, dated 2019)
Like-named read-outs stand apart in the source and are kept apart here.

Columns and labels:
[1] = test system: glycolysis in HT1080 cells; assay: Glycolysis assay: oligomycin plus compound, cellular ATP by Cell Titer Glo; assay type: cell-based; conditions: Homo sapiens, HT-1080, 1 h, 10 μM oligomycin, one hour, class symbols
Outline: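 Confluent HT1080 cells treated 1 h with compound plus 10 μM oligomycin to block mitochondrial ATP, so remaining ATP reflects glycolysis. Cellular ATP read by Cell Titer-Glo luminescence; IC50 derived from dose-response curves.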

Jurkat = assay: Proliferation assay, Jurkat; assay type: cell-based; conditions: Homo sapiens, 72 hrs
Experimental: (§1) As previously discussed, glucose is the major energy source for cancer cells and, compared to normal cells, cancer cells rely on increased rates of glycolysis for survival and cell growth. […] Table 2 summarizes these findings for multiple compounds:
(§2) Cell Proliferation and Cell Death Assays:
(§3) HT1080 cells (or other cell types) were plated in 96-well format at cell densities suitable for culture from 24-72 hrs. For IC50 of cellular proliferation, cells were fixed with TCA and stained with SRB to quantify relative viability. At the end of the specified assay time, the percentage of drug-treated cells was calculated relative to the DMSO control. For cell death assays, viability was assessed relative to the 0-hour timepoint

MOLT-4 = assay: Proliferation assay, MOLT-4; assay type: cell-based; conditions: Homo sapiens, 72 hrs
Experimental: as §1, §2, §3

U937 = assay: Proliferation assay, U937; assay type: cell-based; conditions: Homo sapiens, U-937; 72 hrs
Experimental: as §1, §2, §3

[2] = test system: MOG-induced experimental autoimmune encephalitis (EAE); assay: Mouse prophylactic MOG-EAE model; assay type: in vivo; conditions: dosed orally day 3 to day 25, compared to vehicle control (FIG. 9)
Experimental: Mouse Prophylactic MOG-EAE Model:
Performed at Hooke laboratories. Briefly, mice were immunized with MOG peptide on day 0 and subsequently injected with pertussis toxin. Compounds were dosed orally beginning on day 3 continuing until day 25.

HT1080 cells [3] = assay type: cell-based
Experimental: as §2, §3

HT1080 cells [4] = assay: Cell proliferation assay, single agents and combinations, HT1080; assay type: cell-based; conditions: Homo sapiens; HT-1080 cells; read-out: IC50 as a single agent
Experimental: as §2, §3

[5] = HT1080 cells, 10 μM Ex. 31 or 25 μM H2O2

IC50 [1] [nM] | IC50 (Jurkat) [nM] | SMILES | other results
251 to 500 | 397 | CC(C)NC(=O)COc1cccc(-c2nc(Nc3ccc(-c4cn[nH]c4)cc3)c3ncn(C)c3n2)c1 [Example 5, 2-(3-(6-((4-(1H-pyrazol-4-yl)phenyl)amino)-9-methyl-9H-purin-2-yl)phenoxy)-N-isopropylacetamide] | 
10 to 100 | 630 | CC(C)NC(=O)COc1cccc(-c2nc3c(c(Nc4ccc(-c5cn[nH]c5)cc4)n2)COC3)c1 [Example 1, 2-(3-(4-((4-(1H-pyrazol-4-yl)phenyl)amino)-5,7-dihydrofuro[3,4-d]pyrimidin-2-yl)phenoxy)-N-isopropylacetamide] | IC50 (MOLT-4): 1620 nM
10 to 100 | 500 | CC(C)NC(=O)COc1cccc(-c2nc(Nc3ccc(-c4cn[nH]c4)cc3)c3sccc3n2)c1 [Example 7, 2-(3-(4-((4-(1H-pyrazol-4-yl)phenyl)amino)thieno[3,2-d]pyrimidin-2-yl)phenoxy)-N-isopropylacetamide] | IC50 (U937): 388 nM; onset and end clinical score [2]: either delayed the onset or lowered the end clinical score; IC50 (MOLT-4): 823 nM
10 to 100 | 216 | O=C(COc1cccc(-c2nc(Nc3ccc(-c4cn[nH]c4)cc3)c3sccc3n2)c1)NC1CCCC1 [Example 24] | IC50 (U937): 234 nM; IC50 (MOLT-4): 417 nM
10 to 100 | 170 | O=C(COc1cccc(-c2nc3c(c(Nc4ccc(-c5cn[nH]c5)cc4)n2)COC3)c1)NC1CCCC1 [Example 32] | IC50 (U937): 123 nM; IC50 (MOLT-4): 264 nM
 |  | OO [Example H2O2, H2O2, reference compound] | cell death as single agents (HT1080 cells [3]; [5]): neither 10 μM Ex. 31 nor 25 μM H2O2 caused cell death
101 to 250 | 162 | O=C(COc1cccc(-c2nc(Nc3ccc(-c4cn[nH]c4)cc3)c3sccc3n2)c1)NC1CCC1 [Example 23] | 
 |  | CN(C)CC[C@H](CSc1ccccc1)Nc1ccc(S(=O)(=O)NC(=O)c2ccc(N3CCN(Cc4ccccc4-c4ccc(Cl)cc4)CC3)cc2)cc1[N+](=O)[O-] [ABT-737, reference compound] | cell death as single agents (HT1080 cells [3]; HT-1080 cells): neither Ex. 31 nor ABT-737 (10 M) caused cell death; IC50 (HT1080 cells [4]): ~8500 nM
501 to 1000 | 9400 | O=C(COc1cccc(-c2nc(Nc3ccc(-c4cn[nH]c4)cc3)c3occc3n2)c1)NC1CC1 [Example 21] | 
251 to 500 |  | Cn1ncc2c(Nc3ccc(-c4cn[nH]c4)cc3)nc(-c3cccc(OCC(=O)NC4CCC4)c3)nc21 [Example 54, 2-(3-(4-((4-(1H-pyrazol-4-yl)phenyl)amino)-1-methyl-1H-pyrazolo[3,4-d]pyrimidin-6-yl)phenoxy)-N-cyclobutylacetamide] | 
251 to 500 |  | CC(C)NC(=O)COc1cccc(-c2nc(Nc3ccc(-c4cn[nH]c4)cc3)c3occc3n2)c1 [Example 3, 2-(3-(4-((4-(1H-pyrazol-4-yl)phenyl)amino)furo[3,2-d]pyrimidin-2-yl)phenoxy)-N-isopropylacetamide] | 
10 to 100 |  | CCC(C)NC(=O)COc1cccc(-c2nc3c(c(Nc4ccc(-c5cn[nH]c5)cc4)n2)COCC3)c1 (centres unmarked) [Example 103, 2-(3-(4-((4-(1H-pyrazol-4-yl)phenyl)amino)-7,8-dihydro-5H-pyrano[4,3-d]pyrimidin-2-yl)phenoxy)-N-(sec-butyl)acetamide] | 
501 to 1000 |  | CC(C)NC(=O)COc1cc(F)cc(-c2nc3c(c(Nc4ccc(-c5cn[nH]c5)cc4)n2)COC3)c1 [Example 33] | 
251 to 500 |  | CC(C)NC(=O)COc1cccc(-c2nc(Nc3ccc(-c4cn[nH]c4)cc3)c3cnn(C)c3n2)c1 [Example 55, 2-(3-(4-((4-(1H-pyrazol-4-yl)phenyl)amino)-1-methyl-1H-pyrazolo[3,4-d]pyrimidin-6-yl)phenoxy)-N-isopropylacetamide] | 
101 to 250 |  | CC(C)CNC(=O)COc1cccc(-c2nc(Nc3ccc(-c4cn[nH]c4)cc3)c3ncccc3n2)c1 [Example 53, 2-(3-(4-((4-(1H-pyrazol-4-yl)phenyl)amino)pyrido[3,2-d]pyrimidin-2-yl)phenoxy)-N-isobutylacetamide] | 
10 to 100 |  | CCN1CCc2nc(-c3cccc(OCC(=O)NC(C)(C)CC)c3)nc(Nc3ccc(-c4cn[nH]c4)cc3)c2C1 [Example 130, 2-(3-(4-((4-(1H-pyrazol-4-yl)phenyl)amino)-6-ethyl-5,6,7,8-tetrahydropyrido[4,3-d]pyrimidin-2-yl)phenoxy)-N-(tert-pentyl)acetamide] | 
10 to 100 |  | CC(=O)N1CCc2nc(-c3cccc(OCC(=O)NC4CCCC4)c3)nc(Nc3ccc(-c4cn[nH]c4)cc3)c2C1 [Example 145, 2-(3-(4-((4-(1H-pyrazol-4-yl)phenyl)amino)-6-acetyl-5,6,7,8-tetrahydropyrido[4,3-d]pyrimidin-2-yl)phenoxy)-N-cyclopentylacetamide] | 

SMILES | IC50 [1] [nM] | IC50 (Jurkat) [nM] | other results
O=C(COc1cccc(-c2nc3c(c(Nc4ccc(-c5cn[nH]c5)cc4)n2)COC3)c1)NC1CCC1 [Example 31] | 10 to 100 | 294 | IC50 (U937): 256 nM; cell death, combination with H2O2 (HT1080 cells [3]; HT1080 cells, 10 μM Ex. 31 + 25 μM H2O2 (FIG. 5B)): ~45%; cell death as single agents (HT1080 cells [3]; [5]): neither 10 μM Ex. 31 nor 25 μM H2O2 caused cell death; cell death as single agents (HT1080 cells [3]; HT-1080 cells): neither Ex. 31 nor ABT-737 (10 M) caused cell death; cell death, combination with ABT-737 (HT1080 cells [3]; HT-1080 cells, 72 hours, Ex. 31 + ABT-737 (FIG. 4B)): ~60%; IC50 (MOLT-4): 385 nM
